In one assay the test system is A549. As to the kind of experiment: Cytotoxicity against human A549 cells. It is filed as functional, cell-based.
For a further assay, the system named is MCF7. The experiment in a line: Cytotoxicity against human MCF7 cells. In kind it is functional, cell-based.
Assay [1] has as its system HeLa. As to the kind of experiment: Cytotoxicity against human HeLa cells. It is filed as functional, cell-based.
The test system of another assay is CCRF-CEM. As to the kind of experiment: Cytotoxicity against human CEM cells. It is filed as functional, cell-based.
Assay [2] in a line: Cytotoxicity against human NCI/ADR cells. Conditions: NCI/ADR-RES.
A short description of assay [3]: Cytotoxicity against human NCI-ADR-RES cells expressing ABCB1.
A short description of assay [4]: Antitumor activity against human H460 cells xenografted in athymic nu/nu mouse assessed as tumor regression at 300 mg/kg/day, po administered for 24 days. In kind it is functional, NCI-H460. On the technique in general: A xenograft is tissue or cells of one species grown in another, often human tumour cells in immunodeficient mice.
Assay [5] concerns U-251. The experiment in a line: Cell cycle arrest in human U251 cells assessed as accumulation at S phase at 30 uM after 24 hrs by flow cytomtery analysis (reference value: 18.08%). In kind it is functional.
In assay [6] the test system is U-251. The experiment in a line: Cell cycle arrest in human U251 cells assessed as accumulation at G2/M phase at 30 uM after 24 hrs by flow cytomtery analysis (reference value: 22.31%). It is filed as functional.
Assay [7] can be described thus: Antiproliferative activity against human LN229 cells assessed as decrease in colony formation. It is filed as functional, cell-based. The following applies: LN-229.
Assay [8] concerns HeLa. As to the kind of experiment: Antimitotic activity against human HeLa cells. In kind it is functional, cell-based.
The target of assay [9] is T1, Tubulin (Homo sapiens) (UniProt P68371+Q9H4B7+P0DPH7+P68366+Q13509+Q71U36+P04350+Q3ZCM7+P07437+P68363+Q9BQE3+Q6PEY2+Q13885+Q9BVA1+Q9BUF5). The experiment in a line: Inhibition of tubulin polymerization in human HeLa cells assessed as polymeric tubulin level at 10 uM. Also on record: scale not given: the % may be the effect or the level left. It is filed as cell-based.

The test system of assay [10] is HeLa. As to the kind of experiment: Growth inhibition in human HeLa cells assessed as reduction of growth at 50 uM. It is filed as functional. Conditions: read-out: GI.
The target in assay [11] is T1, Tubulin (Homo sapiens). As to the kind of experiment: Inhibition of tubulin polymerization in human HeLa cells assessed as shortening of microtubules at 20 uM. Also on record: scale not given: the % may be the effect or the level left. It is filed as cell-based.
Assay [12] deals with U-251. As to the kind of experiment: Cell cycle arrest in human TMZ-resistant U251 cells assessed as accumulation at G1 phase at 30 uM after 24 hrs by flow cytomtery analysis (reference value: 47.53%). It is filed as functional.
Assay [13] is described as follows: Antitumor activity against human H460 cells xenografted in athymic nu/nu mouse assessed as tumor regression at 450 mg/kg/day, po administered for 24 days. It is filed as functional, NCI-H460.
The test system of assay [14] is U-251. As to the kind of experiment: Antiproliferative activity against human U251 cells assessed as decrease in colony formation. In kind it is functional, cell-based.
In assay [15] the test system is U-251. The experiment in a line: Cell cycle arrest in human U251 cells assessed as accumulation at G1 phase at 30 uM after 24 hrs by flow cytomtery analysis (reference value: 59.62%). In kind it is functional.
The nature of assay [16]: Cytotoxicity against human H460 cells after 72 hrs. Conditions: NCI-H460, 72 h. In kind it is functional, cell-based.
For assay [17], the target named is T1, Tubulin (Homo sapiens). As to the kind of experiment: Inhibition of tubulin polymerization in human HeLa cells assessed as microtubules spent time in attenuated state at 50 uM. Also on record: scale not given: the % may be the effect or the level left. It is filed as cell-based.
A short description of assay [18]: Antiproliferative activity against human A172 cells assessed as decrease in colony formation. In kind it is functional, cell-based. The following applies: A 172.
Assay [19] addresses T1, Tubulin (Homo sapiens). As to the kind of experiment: Inhibition of tubulin polymerization in human HeLa cells assessed as polymeric tubulin level at 1 uM. Also on record: scale not given: the % may be the effect or the level left. In kind it is cell-based.
Assay [20] relates to HeLa. The experiment in a line: Cell cycle arrest in human HeLa cells assessed as accumulation at S phase after 24 hrs by FACS analysis (reference value: 12.9%). In kind it is functional. (In general: In flow cytometry, cells or beads pass a laser one at a time.)
For assay [21], the system named is HeLa. The experiment in a line: Induction of apoptosis in human HeLa cells after 24 hrs. In kind it is functional.
Assay [22] deals with HeLa. The experiment in a line: Cell cycle arrest in human HeLa cells assessed as accumulation at G2/M phase by measuring 4N DNA content at 6.4 uM by flow cytometry. In kind it is functional.
For assay [23], the system named is U-251. The experiment in a line: Cell cycle arrest in human TMZ-resistant U251 cells assessed as accumulation at G2/M phase at 30 uM after 24 hrs by flow cytomtery analysis (reference value: 19.42%). In kind it is functional.
In assay [24] the test system is HeLa. The experiment in a line: Cell cycle arrest in human HeLa cells assessed as accumulation at G2/M phase after 24 hrs by FACS analysis (reference value: 16.5%). In kind it is functional.
The test system of assay [25] is U-251. The experiment in a line: Cell cycle arrest in human TMZ-resistant U251 cells assessed as accumulation at S phase at 30 uM after 24 hrs by flow cytomtery analysis (reference value: 33.05%). It is filed as functional.
Assay [26] in a line: Antitumor activity against human H460 cells xenografted in athymic nu/nu mouse assessed as tumor regression at 550 mg/kg/day, po administered for 24 days. In kind it is functional, NCI-H460.
Assay [27] concerns HeLa. The experiment in a line: Cell cycle arrest in human HeLa cells assessed as accumulation at G1 phase after 24 hrs by FACS analysis (reference value: 45.2%). It is filed as functional.
The target in assay [28] is T1, Tubulin (Homo sapiens). As to the kind of experiment: Inhibition of tubulin polymerization in human HeLa cells assessed as shortening of microtubules at 50 uM. In kind it is cell-based. Also on record: scale not given: the % may be the effect or the level left.
The target in assay [29] is T1, Tubulin (Homo sapiens). As to the kind of experiment: Inhibition of tubulin polymerization in human HeLa cells assessed as polymeric tubulin level at 100 uM. In kind it is cell-based. Also on record: scale not given: the % may be the effect or the level left.
A further assay relates to C6. As to the kind of experiment: Antitumor activity against rat C6 cells xenografted in mouse assessed as reduction of tumor volume relative to control. It is filed as functional.
The target of assay [30] is T1, Tubulin (Homo sapiens). The experiment in a line: Inhibition of MAPs-rich tubulin (unknown origin) polymerization at 50 uM. In kind it is protein-complex assay.

Consider `COc1ccc(CN2CCc3cc4c(c(OC)c3[C@@H]2[C@H]2OC(=O)c3c2ccc(OC)c3OC)OCO4)cc1`, for which the 50% inhibitory concentration (IC50) with A549 was 33.5 µM; in the assay on MCF7, 28.7 µM; with HeLa [1] it was 17.9 µM; in the assay with CCRF-CEM, 7.7 µM.
In the case of `COc1cccc(CN2CCc3cc4c(c(OC)c3[C@@H]2[C@H]2OC(=O)c3c2ccc(OC)c3OC)OCO4)c1`, the IC50 came out at 26.9 µM with A549, 24.5 µM with MCF7, 15.3 µM in the assay on HeLa [1] and 6.7 µM in the assay on CCRF-CEM.
Turning to `COc1cc2c(c(OC)c1OC)-c1ccc(OC)c(=O)cc1[C@@H](NC(C)=O)CC2` [COLCHICINE], the IC50 in assay [2] amounted to 0.00036 µM; in assay [3] it was 0.096 µM.
Regarding `COc1ccc2c(c1OC)C(=O)O[C@@H]2[C@H]1c2c(cc3c(c2OC)OCO3)CCN1CC(C)=O`, the IC50 stood at 28 µM with A549, 25.3 µM in the assay with MCF7, 15.8 µM with HeLa [1] and 6.9 µM in the assay on CCRF-CEM.
Regarding `COc1ccc2c(c1OC)C(=O)O[C@@H]2[C@H]1c2c(cc3c(c2OC)OCO3)CCN1C` [NOSCAPINE], the Activity in assay [4] was 49%; in the assay on U-251 [5] it was 23.33%; in the assay with U-251 [6], 47.75%; at Tubulin (Homo sapiens) [9], 59.2%; on Tubulin (Homo sapiens) [11], 21.6%; in the assay on U-251 [12], 21.54%. Moreover, the Activity in assay [13] was determined as 65%; with U-251 [15], 28.92%; at Tubulin (Homo sapiens) [17], 12.7%; at Tubulin (Homo sapiens) [19] it was 58.3%; in the assay with HeLa [20] it was 11.1%; with HeLa [21], 50%. The Activity in the assay with HeLa [22] is 15.2%; in the assay with U-251 [23], 23.13%; with HeLa [24] it was 42.9%; in the assay with U-251 [25], 25.33%; in assay [26], 86%; in the assay on HeLa [27], 6.4%. The Activity at Tubulin (Homo sapiens) [28] amounted to 24.3%; on Tubulin (Homo sapiens) [29], 59.2%. Further, the IC50 worked out at 70 µM in assay [7]; 72.9 µM in the assay with A549; 40 µM in the assay with U-251 [14]; 34.7 µM in assay [16]; 20 µM in [18]; 14.5 µM in the assay on CCRF-CEM. Further, the EC50 with HeLa [8] stood at 18.4 µM. Moreover, the inhibition of growth at 50 µM in the assay with HeLa [10] came to 42.4%. The “growth inhibition (GI)” value in the assay with C6 was 60%.
For `COc1ccc2c(c1OC)C(=O)O[C@@H]2[C@H]1c2c(cc3c(c2OC)OCO3)CCN1Cc1ccc([N+](=O)[O-])cc1`, the 50% inhibitory concentration (IC50) in the assay on A549 is 49 µM; in the assay on MCF7, 38.2 µM; with HeLa [1], 23.7 µM; in the assay with CCRF-CEM, 10 µM.
Consider `COc1ccc2c(c1OCCCS(=O)(=O)O)C(=O)O[C@@H]2[C@H]1c2c(c(Br)c3c(c2OC)OCO3)CCN1C`, for which the inhibition at Tubulin (Homo sapiens) [30] came to 61%.
On to `COc1ccc2c(c1OC)C(=O)O[C@@H]2[C@H]1c2c(cc3c(c2OC)OCO3)CCN1Cc1ccc(Br)cc1`, for which the IC50 in the assay with A549 was 42.4 µM; with MCF7, 34.1 µM; with HeLa [1], 21.2 µM; in the assay on CCRF-CEM, 9 µM.
For `COc1ccc2c(c1OC)C(=O)O[C@@H]2[C@H]1c2c(cc3c(c2OC)OCO3)CCN1Cc1cccc(Cl)c1` the same measures were 61.3 µM, 45.8 µM, 28.3 µM and 11.9 µM.
On to `CCOC(=O)CN1CCc2cc3c(c(OC)c2[C@@H]1[C@H]1OC(=O)c2c1ccc(OC)c2OC)OCO3`, for which the IC50 with A549 came out at 72.3 µM; with MCF7, 52.6 µM; in the assay on HeLa [1], 32.4 µM; in the assay with CCRF-CEM, 13.6 µM.
For `COC(=O)CN1CCc2cc3c(c(OC)c2[C@@H]1[C@H]1OC(=O)c2c1ccc(OC)c2OC)OCO3`, the 50% inhibitory concentration (IC50) with A549 turned out to be 45.4 µM; with MCF7 it was 36 µM; in the assay on HeLa [1] it was 22.3 µM; in the assay on CCRF-CEM it was 9.5 µM.

The IC50 is the point on the concentration scale where inhibition reaches its midpoint. As usually defined, the EC50 is the concentration at which the effect is half-maximal. By inhibition is commonly meant the change of the read-out against control, counted positive when it falls.

Source of the values: ChEMBL document CHEMBL3596161, “Progress Toward the Development of Noscapine and Derivatives as Anticancer Agents” (J Med Chem, 2015).
